According to the supplement of paper PMC10307832:

Experiments:
Test in all cases: relative viability (nuclei count vs DMSO), 5 days (fraction); higher = more cells survive
[1] = compound: Cc1ccc(C(=O)Nc2ccc(CN3CCN(C)CC3)c(C(F)(F)F)c2)cc1C#Cc1cnc2cccnn12 [Ponatinib] + CC(C)C[C@H](NC(=O)[C@H](Cc1ccccc1)NC(=O)c1cnccn1)B(O)O [Bortezomib] (partner 0.002 µM)
How it was run: (§1)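 Lung cancer cell lines were pin-tool dosed in 1536-well plates on the day after seeding, with either a lone drug or a fixed anchor-drug dose plus five library-drug doses (not always all listed) in √10 steps. Nuclei were counted on 4× images after 5 days. Relative viability is the ratio of treated-well to vehicle-well nuclei counts, with each value a median of duplicate plates.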

[2] = compound: Cc1ccc(C(=O)Nc2ccc(CN3CCN(C)CC3)c(C(F)(F)F)c2)cc1C#Cc1cnc2cccnn12 [Ponatinib] + CS(=O)(=O)N1CCN(Cc2cc3nc(-c4cccc5[nH]ncc45)nc(N4CCOCC4)c3s2)CC1 [Pictilisib] (partner 1 µM)
How it was run: as §1

[3] = compound: Cc1ccc(C(=O)Nc2ccc(CN3CCN(C)CC3)c(C(F)(F)F)c2)cc1C#Cc1cnc2cccnn12 [Ponatinib] + O=C(c1cc(Cc2n[nH]c(=O)c3ccccc23)ccc1F)N1CCN(C(=O)C2CC2)CC1 [Olaparib] (partner 8 µM)
How it was run: as §1

[4] = compound: Cc1ccc(Nc2nccc(N(C)c3ccc4c(C)n(C)nc4c3)n2)cc1S(N)(=O)=O [Pazopanib] + Cc1nc(Nc2ncc(C(=O)Nc3c(C)cccc3Cl)s2)cc(N2CCN(CCO)CC2)n1 [Dasatinib] (partner 0.075 µM)
How it was run: as §1

Cell Line | relative viability ([1]; first compound 0.006325 µM) | relative viability ([1]; first compound 0.06325 µM) | relative viability ([1]; first compound 0.2 µM) | relative viability ([2]; first compound 0.002 µM) | relative viability ([2]; first compound 0.006325 µM) | relative viability ([2]; first compound 0.06325 µM) | relative viability ([2]; first compound 0.2 µM) | relative viability ([3]; first compound 0.002 µM) | relative viability ([3]; first compound 0.006325 µM) | relative viability ([3]; first compound 0.06325 µM) | relative viability ([3]; first compound 0.2 µM) | relative viability ([4]; first compound 0.01 µM) | relative viability ([4]; first compound 0.03162 µM) | relative viability ([4]; first compound 0.1 µM) | relative viability ([4]; first compound 0.3162 µM) | relative viability ([4]; first compound 1 µM) | relative viability ([1]; first compound 0.002 µM)
NCI-H2347 | 1.08 | 0.962 | 0.938 | 0.677 | 0.849 | 0.692 | 0.414 | 0.546 | 0.604 | 0.625 | 0.547 | 0.27 | 0.307 | 0.303 | 0.353 | 0.331 | 
NCI-H2405 | 1.05 | 0.944 | 0.93 | 0.388 | 0.574 | 0.497 | 0.403 | 0.784 | 0.796 | 0.95 | 0.776 | 0.222 | 0.227 | 0.147 | 0.256 | 0.249 | 0.931
NCI-H3122 | 1.02 | 1.02 | 1 | 0.635 | 0.7 | 0.635 | 0.73 | 0.507 | 0.634 | 0.564 | 0.592 | 0.815 | 0.895 | 0.756 | 0.785 | 0.5 | 1.02
PC-3 [JPC-3] | 0.812 | 0.961 | 0.815 | 0.653 | 0.708 | 0.885 | 0.875 |  | 1.15 | 1.3 | 1.09 | 0.991 | 0.939 | 1.11 | 0.939 | 0.983 | 0.826
PC-14 | 0.944 | 1.02 | 0.875 | 0.637 | 0.691 | 0.794 | 0.702 | 0.334 | 0.359 | 0.347 | 0.284 | 0.27 | 0.241 | 0.288 | 0.267 | 0.266 | 0.846
RERF-LC-KJ | 0.988 | 1.2 | 1.15 | 0.618 | 0.582 | 0.781 | 0.68 | 0.874 | 0.879 | 0.988 | 0.793 | 0.836 | 0.773 | 0.915 | 0.722 | 0.765 | 1.06
SK-LU-1 | 1.01 | 0.949 | 0.757 | 0.518 | 0.63 | 0.523 | 0.377 | 0.36 | 0.491 | 0.535 | 0.388 | 0.142 | 0.179 | 0.192 | 0.189 | 0.174 | 1.01
SW 1573 | 1.02 | 1.03 | 0.997 | 0.489 | 0.515 | 0.526 | 0.566 | 0.591 | 0.519 | 0.496 | 0.408 | 0.588 | 0.717 | 0.621 | 0.451 | 0.561 | 0.971
UMC-11 | 0.769 | 0.921 | 0.646 | 0.809 | 0.933 | 0.766 | 0.831 | 0.405 | 1.01 | 0.338 | 0.366 | 0.455 | 0.459 | 0.568 | 0.467 | 0.432 | 0.653
